From publication PMC6588243, “Fate of ptaquiloside—A bracken fern toxin—In cattle” (PLoS ONE, 2019)
Where two headings read alike, the source gives them in different places.

Columns and labels:
Assay type in all cases: in vivo, Jersey heifers
[1] = Toxicokinetics of PTA and PTB in plasma after intravenous administration of PTA
Protocol: (§1) Two heifers (no’s 4848 and 4849) were used in a series of five experiments (Table 1) in a cross-over design including intravenous administration of pure PTA, oral administration of bracken extract and oral administration of dried bracken fern. At least 2 weeks elapsed between each experiment.
Intravenous administration of PTA. In Experiment 1 the dose of purified PTA (0.21 mg kg^-1 body weight (b.w.) / 0.527 μmoles kg^-1) was dissolved in 10 mL of sterile water in a brown glass vial 1 hour before administration and protected from light. The solution was injected through a catheter (Cavafix Certo: 45 cm, 16 G; B. Braun Melsungen AG, Melsungen, Germany) placed in the right jugular vein. Blood samples were collected through another catheter placed in the left jugular vein. Blood samples were collected in heparinized glass tubes before and at predetermined times (10, 20, 30, 45 min and 1, 2, 4, 6, 8, 12, 21 and 24 hours) after PTA administration. The blood was centrifuged for 15 min at 3000 g to separate plasma which then was stored immediately at -18°C until assayed within a week following the method of Aranha et al.. Urine was collected quantitatively in urinary bags (Ratiomed GmBH, München, Germany) through a Foley catheter (Rusch Silasil no 16; Teleflex, Milan, Italy) inserted into the bladder. Samples were collected before and at predetermined times (1, 2, 4, 6, 8, 12, 20 and 24 hours) after PTA administration. Two replicates from each sample were diluted 10 times (0.5 mL: 4.5 mL) with 0.1 M acetic acid, buffered to pH 5 with ammonium acetate and frozen immediately at -18°C until assayed within a week following the method of Aranha et al.. […] In this experiment, PTA was dissolved in sterile water immediately before injection.
(§2) Concentrations of PTA in plasma of individual animals were evaluated by non-compartmental analysis. Toxicokinetic variables were calculated using standard kinetic equations. The area under the curve (AUC) and the area under the first moment curve (AUMC) were determined using combined linear and natural logarithm trapezoidal rules. The terminal elimination rate was determined using the last three data points of the curve.
(§3) PTA and PTB were analysed by LC-MS after purification using solid phase extraction (SPE) columns as reported in Aranha et al.. The limit of quantification of PTA and PTB in plasma was 3.0 x 10^−3 μM and 9.30 x 10^−3 μM, respectively. Limit of quantifications in diluted urine was 13 x 10^−3 μM for PTA and 8.28 x 10^−3μM for PTB.

[2] = Toxicokinetics in plasma after oral administration of bracken extract or dried bracken fern; conditions: for AUC0-∞ / MTT mean transit time: PTB in plasma; for Cmax / Tmax / k el: female, Jersey, plasma, po; for Cmax: read-out: Cmax maximum concentration; for k el: read-out: λz terminal slope (converted)
Protocol: as §1
(§4) Oral exposure, bracken extract. Bracken extract was administered orally by gavage in Experiment 2 (170 and 172 mL) and Experiment 5 (820 and 850 mL), to obtain PTA doses of 0.41 and 2 mg kg^-1 b.w (1.025 and 5.000 μmoles kg^-1), respectively. Blood and urine samples were collected up to 48 hours after gavage and samples were processed and stored as described previously.
(§5) Oral exposure, dried bracken fern. In Experiment 3, dried bracken fern was milled to a fine powder. Immediately before administration, the powder was mixed with water to produce a slurry (15 g of bracken per 100 mL of water). The slurry was administered orally by gavage (400 mL and 380 mL) corresponding to a PTA dose of 1.6 mg kg^-1 b.w (4 μmoles kg^-1). Blood and urine samples were collected up to 72 hours after gavage and the samples were processed and stored as described above.
as §2, §3

[3] = Presence of glucuronides and sulphates in urine (B-glucuronidase/arylsulfatase incubation); conditions: urine after iv PTA
Protocol: The presence of glucuronides and sulphates was assessed by incubating 1 ml of buffered urine samples in 0.1 M acetic acid buffer (pH 5) with or without addition of 100 μl of B-glucuronidase/arylsulfatase at 37°C for 3 hours on a shaking water bath. Afterwards, an aliquot of 950 μl of each samples were cleaned on the Oasis HLB cartridges and analysed as described for urine samples [22].

[4] = Urinary recovery after oral administration of bracken extract or dried bracken fern; conditions: oral bracken extract or dried fern, within 24 hours
Protocol: as §4, §5, §3

[5] = One-week repeated dose trial with dried bracken, plasma toxicokinetics; conditions: for AUC0-∞ / MTT: PTB in plasma, daily PTA dose 2 mg kg^-1
Excerpt: The two heifers used for the single dose trials were also used for the one week repeated dose study together with an additional two Jersey heifers (no’s 1550 and 1567; Harald Hansen Eftf. I/S, Slangerup, Denmark) weighing 163 to 237 kg. The additional two heifers had never been exposed to PTA or to bracken fern. A wash-out period of 20 days between the last single-dose experiment and the one week repeated dose trial was established for heifers no’s 4848 and 4849.
All four heifers were fed dried bracken powder (top-dressed and molasses added). twice a day during a period of 7 days providing a daily PTA dose of 2 mg kg^-1 (5 μmoles kg^-1). On Day 8, the heifers no 4848 and no 1567 were additionally fed in the morning and euthanized 1 hour after using a captive bolt pistol and exsanguination. The two other heifers (no 4849 and no 1550) were euthanized 15 h after the last dose on Day 7 (Fig 2).
Blank blood samples were collected before the first dose was given. On Day 1 and Day 7 blood samples were collected after the morning dose at predetermined time points between 1 and 6 h after dosing (1, 2, 3, 5 and 6 hours). On Day 2 to Day 6 blood samples were collected daily 1 hour after 50% or more of the morning feed had been ingested, since the bracken fern was not eaten instantly. On Day 8 blood samples were collected just before euthanasia. Blood samples were processed and stored as described above.
as §2

[6] = oral bracken extract, PTA dose 1.03 μmoles kg^-1, heifer no 4848
[7] = oral bracken extract, PTA dose 1.03 μmoles kg^-1, heifer no 4849
[8] = oral bracken extract, PTA dose 5.02 μmoles kg^-1, heifer no 4848
[9] = oral bracken extract, PTA dose 5.02 μmoles kg^-1, heifer no 4849
[10] = oral dried bracken, PTA dose 4.02 μmoles kg^-1, heifer no 4848
[11] = oral dried bracken, PTA dose 4.02 μmoles kg^-1, heifer no 4849
[12] = bovine, 1.03 μmoles kg^-1, PTB in plasma, oral bracken extract, PTA dose 1.03 μmoles kg^-1, heifer no 4848
[13] = bovine, 1.03 μmoles kg^-1, PTB in plasma, oral bracken extract, PTA dose 1.03 μmoles kg^-1, heifer no 4849
[14] = bovine, 4.02 μmoles kg^-1, PTB in plasma, oral dried bracken, PTA dose 4.02 μmoles kg^-1, heifer no 4848
[15] = bovine, 4.02 μmoles kg^-1, PTB in plasma, oral dried bracken, PTA dose 4.02 μmoles kg^-1, heifer no 4849
[16] = bovine, 5.02 μmoles kg^-1, PTB in plasma, oral bracken extract, PTA dose 5.02 μmoles kg^-1, heifer no 4848
[17] = bovine, 5.02 μmoles kg^-1, PTB in plasma, oral bracken extract, PTA dose 5.02 μmoles kg^-1, heifer no 4849
[18] = Day 1, heifer 1550, dried bracken twice a day
[19] = Day 1, heifer 1567, dried bracken twice a day
[20] = Day 1, heifer 4848, dried bracken twice a day
[21] = Day 1, heifer 4849, dried bracken twice a day
[22] = Day 7, heifer 1550, dried bracken twice a day
[23] = Day 7, heifer 1567, dried bracken twice a day
[24] = Day 7, heifer 4848, dried bracken twice a day
[25] = Day 7, heifer 4849, dried bracken twice a day

Cc1cc2c(c(C)c1CCO)C(=O)[C@H](C)C2 [PTB, pterosin B]
AUC0-∞ ([1]; PTB in plasma after iv PTA 0.141 μmoles kg^-1, heifer no 4849, head prints Experiment 2): 0.319 µM·h | AUC0-∞ ([1]; PTB in plasma after iv PTA 0.231 μmoles kg^-1, heifer no 4848, head prints Experiment 2): 0.284 µM·h | AUC0-∞ ([1]; PTB in plasma after iv PTA 0.527 μmoles kg^-1, heifer no 4848, Experiment 1): 0.596 µM·h | AUC0-∞ ([1]; PTB in plasma after iv PTA 0.527 μmoles kg^-1, heifer no 4849, Experiment 1): 0.654 µM·h | Tmax ([1]; female, Jersey, cattle, plasma, 0.21 mg kg^-1 b.w., iv PTA, first sampling point, read-out: time of peak plasma concentration of the metabolite after administration of PTA (converted)): 10 min | ratio of AUC PTB to AUC PTA ([1]; heifer no 4848, Experiments 1 and 4): approx. 0.4 | ratio of AUC PTB to AUC PTA ([1]; heifer no 4849, additional iv experiment with lower dose): 0.76 | AUC0-∞ [2, 6]: 0.177 µM·h | MTT mean transit time [2, 6]: 3.82 h | AUC0-∞ [2, 7]: 0.367 µM·h | MTT mean transit time [2, 7]: 4.55 h | AUC0-∞ [2, 8]: 0.594 µM·h | MTT mean transit time [2, 8]: 2.89 h | AUC0-∞ [2, 9]: 0.657 µM·h | MTT mean transit time [2, 9]: 3.02 h | AUC0-∞ [2, 10]: 0.897 µM·h | MTT mean transit time [2, 10]: 3.29 h | AUC0-∞ [2, 11]: 0.428 µM·h | MTT mean transit time [2, 11]: 3.58 h | PTB in plasma and urine after oral administration ([2]; bracken extract or dried ferns): detected in both plasma and urine | Cmax [2, 12]: 28 nM | Tmax ([2]; bovine, 1.03 μmoles kg^-1, PTB in plasma, oral bracken extract, PTA dose 1.03 μmoles kg^-1, heifer no 4848, read-out: Tmax time at maximum concentration): 120 min | k el [2, 12]: 6.5e-05 s⁻¹ | Cmax [2, 13]: 43 nM | Tmax ([2]; bovine, 1.03 μmoles kg^-1, PTB in plasma, oral bracken extract, PTA dose 1.03 μmoles kg^-1, heifer no 4849, read-out: Tmax time at maximum concentration): 30 min | k el [2, 13]: 2.78e-05 s⁻¹ | Cmax [2, 14]: 182 nM | Tmax ([2]; bovine, 4.02 μmoles kg^-1, PTB in plasma, oral dried bracken, PTA dose 4.02 μmoles kg^-1, heifer no 4848, read-out: Tmax time at maximum concentration): 30 min | k el [2, 14]: 8.56e-05 s⁻¹ | Cmax [2, 15]: 74 nM | Tmax ([2]; bovine, 4.02 μmoles kg^-1, PTB in plasma, oral dried bracken, PTA dose 4.02 μmoles kg^-1, heifer no 4849, read-out: Tmax time at maximum concentration): 120 min | k el [2, 15]: 7.78e-05 s⁻¹ | Cmax [2, 16]: 160 nM | Tmax ([2]; bovine, 5.02 μmoles kg^-1, PTB in plasma, oral bracken extract, PTA dose 5.02 μmoles kg^-1, heifer no 4848, read-out: Tmax time at maximum concentration): 60 min | k el [2, 16]: 0.000106 s⁻¹ | Cmax [2, 17]: 174 nM | Tmax ([2]; bovine, 5.02 μmoles kg^-1, PTB in plasma, oral bracken extract, PTA dose 5.02 μmoles kg^-1, heifer no 4849, read-out: Tmax time at maximum concentration): 45 min | k el [2, 17]: 8.06e-05 s⁻¹ | Tmax ([2]; cattle, PTB, oral bracken extract and bracken fern, read-out: time to maximum concentration in plasma (Tmax)): ~60 min | conjugation with glucuronic acid or sulphate in urine [3]: not conjugated with either glucuronic acid or sulphate | PTB recovered in urine [4]: up to 7 % of the dose | PTB recovered in urine ([4]; listed as Pterosin B): 7 % of the dose | AUC0-∞ ([5]; Day 1, average of four heifers): 0.774 µM·h | MTT ([5]; Day 1, average of four heifers): 3.8 h | AUC0-∞ [5, 18]: 0.386 µM·h | MTT [5, 18]: 2.3 h | AUC0-∞ [5, 19]: 1.248 µM·h | MTT [5, 19]: 4.4 h | AUC0-∞ [5, 20]: 0.873 µM·h | MTT [5, 20]: 4.6 h | AUC0-∞ [5, 21]: 0.591 µM·h | MTT [5, 21]: 3.9 h | AUC0-∞ ([5]; Day 7, average of four heifers): 0.849 µM·h | MTT ([5]; Day 7, average of four heifers): 3.4 h | AUC0-∞ [5, 22]: 0.606 µM·h | MTT [5, 22]: 3.2 h | AUC0-∞ [5, 23]: 1.264 µM·h | MTT [5, 23]: 3.6 h | AUC0-∞ [5, 24]: 0.968 µM·h | MTT [5, 24]: 3.9 h | AUC0-∞ [5, 25]: 0.558 µM·h | MTT [5, 25]: 3.0 h | transient peak of PTB in plasma as share of the PTA dose ([5]; after the morning dose): 10% | accumulation of PTB in the organism ([5]; mean AUC0-∞ Day 1 vs Day 7): not accumulated
